Data from the supplement of paper PMC10307832.

Assays:
Experiment in all cases: relative viability (nuclei count vs DMSO), 5 days (fraction); higher = more cells survive
LOU-NH91 = system: LOU-NH91
Procedure, shortened: (§1)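 The day after seeding in 1536-well plates, lung cancer cell lines were treated by pin tool with a single drug, or with a fixed anchor-drug dose together with five library-drug doses (not always all listed) in √10 steps. After 5 days, a combined fix-and-stain solution (final 0.05% Triton X-100, 1% formaldehyde, 1 ug/ml Hoechst) was added. Nuclei counted on 4× images gave relative viability as treated counts over vehicle counts, reported as the median of duplicate plates.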

NCI-H1993 = system: NCI-H1993
Procedure, shortened: as §1

NCI-H460 = system: NCI-H460
Procedure, shortened: as §1

A-427 = system: A-427
Procedure, shortened: as §1

HCC-366 = system: HCC-366
Procedure, shortened: as §1

HCC-78 = system: HCC-78
Procedure, shortened: as §1

ChaGo-K-1 = system: ChaGo-K-1
Procedure, shortened: as §1

NCI-H1734 = system: NCI-H1734
Procedure, shortened: as §1

NCI-H650 = system: NCI-H650
Procedure, shortened: as §1

NCI-H1650 = system: NCI-H1650
Procedure, shortened: as §1

HCC-44 = system: HCC-44
Procedure, shortened: as §1

NCI-H441 = system: NCI-H441
Procedure, shortened: as §1

Work on O=C(O)CCCCC(CCSCc1ccccc1)SCc1ccccc1 (configuration not stated) [CPI-613] + N=C(N)NC(=N)NCCc1ccccc1 [Phenformin] (partner 250 µM) yielded a relative viability (LOU-NH91; first compound 158.11 µM) of 0.504, a relative viability (LOU-NH91; first compound 500 µM) of 0.526 and a relative viability (NCI-H1993; first compound 5 µM) of 0.492. The relative viability (NCI-H1993; first compound 15.81 µM) was 0.532, the relative viability (NCI-H1993; first compound 50 µM) was 0.492 and the relative viability (NCI-H1993; first compound 158.11 µM) was 0.473. For the same compound, the relative viability (NCI-H1993; first compound 500 µM) was 0.42, the relative viability (NCI-H460; first compound 5 µM) was 0.521 and the relative viability (NCI-H460; first compound 15.81 µM) was 0.449. It also gave a relative viability (NCI-H460; first compound 50 µM) of 0.434, a relative viability (NCI-H460; first compound 158.11 µM) of 0.115 and a relative viability (NCI-H460; first compound 500 µM) of 0.0156. For the same compound, the relative viability (A-427; first compound 5 µM) was 0.279, the relative viability (A-427; first compound 15.81 µM) was 0.255 and the relative viability (A-427; first compound 50 µM) was 0.267. The relative viability (A-427; first compound 158.11 µM) was 0.178, the relative viability (A-427; first compound 500 µM) was 0.1 and the relative viability (HCC-366; first compound 5 µM) was 0.554. It also gave a relative viability (HCC-366; first compound 15.81 µM) of 0.567, a relative viability (HCC-366; first compound 50 µM) of 0.651 and a relative viability (HCC-366; first compound 158.11 µM) of 0.239. It also gave a relative viability (HCC-366; first compound 500 µM) of 0.0045, a relative viability (HCC-78; first compound 5 µM) of 0.712 and a relative viability (HCC-78; first compound 15.81 µM) of 0.647. The relative viability (HCC-78; first compound 50 µM) was 0.787, the relative viability (HCC-78; first compound 158.11 µM) was 0.591 and the relative viability (HCC-78; first compound 500 µM) was 0.651. The relative viability (ChaGo-K-1; first compound 5 µM) was 0.47, the relative viability (ChaGo-K-1; first compound 15.81 µM) was 0.454 and the relative viability (ChaGo-K-1; first compound 50 µM) was 0.491. The relative viability (ChaGo-K-1; first compound 158.11 µM) was 0.331, the relative viability (ChaGo-K-1; first compound 500 µM) was 0.124 and the relative viability (NCI-H1734; first compound 5 µM) was 0.389. The relative viability (NCI-H1734; first compound 15.81 µM) was 0.322, the relative viability (NCI-H1734; first compound 50 µM) was 0.348 and the relative viability (NCI-H1734; first compound 158.11 µM) was 0.219. The relative viability (NCI-H1734; first compound 500 µM) was 0.0834, the relative viability (NCI-H650; first compound 5 µM) was 0.508 and the relative viability (NCI-H650; first compound 15.81 µM) was 0.412. For the same compound, the relative viability (NCI-H650; first compound 50 µM) was 0.448, the relative viability (NCI-H650; first compound 158.11 µM) was 0.371 and the relative viability (NCI-H650; first compound 500 µM) was 0.333. For the same compound, the relative viability (NCI-H1650; first compound 5 µM) was 0.403, the relative viability (NCI-H1650; first compound 15.81 µM) was 0.408 and the relative viability (NCI-H1650; first compound 50 µM) was 0.366. The relative viability (NCI-H1650; first compound 158.11 µM) was 0.136, the relative viability (NCI-H1650; first compound 500 µM) was 0.0086 and the relative viability (HCC-44; first compound 5 µM) was 0.15. It also gave a relative viability (HCC-44; first compound 15.81 µM) of 0.195, a relative viability (HCC-44; first compound 50 µM) of 0.185 and a relative viability (HCC-44; first compound 158.11 µM) of 0.268. It also gave a relative viability (HCC-44; first compound 500 µM) of 0.248, a relative viability (NCI-H441; first compound 5 µM) of 0.885 and a relative viability (NCI-H441; first compound 15.81 µM) of 0.734. It also gave a relative viability (NCI-H441; first compound 50 µM) of 0.79, a relative viability (NCI-H441; first compound 158.11 µM) of 0.284 and a relative viability (NCI-H441; first compound 500 µM) of 0.0276.
